The test system of this experiment is P388 leukemia ip, CD2F1 mice, survival T/C. The experiment is described as follows: NCI In Vivo Anticancer Drug Screen. Data for tumor model P388 Leukemia (intraperitoneal) in CD2F1 (CDF1) mice. The following applies: endpoint: median survival time, higher = longer survival. In outline: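 Mice carrying the transplanted tumor received test compound or vehicle. Survival was recorded in each group, and the value is the treated-group measurement divided by that of the vehicle-treated control group.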

Where [1] appears, read: dose: 50.0 mg/kg/injection, schedule: Q01DX005 (ip), vehicle: saline.
Where [2] appears, read: dose: 50.0 mg/kg/injection, schedule: Q01DX009 (ip), vehicle: Klucel (hydroxypropylcellulose) (HPC).
Where [3] appears, read: dose: 100.0 mg/kg/injection, schedule: Q01DX009 (ip), vehicle: Klucel (hydroxypropylcellulose) (HPC).
Setting [4] is: dose: 200.0 mg/kg/injection, schedule: Q01DX009 (ip), vehicle: Klucel (hydroxypropylcellulose) (HPC).
[5] abbreviates: dose: 50.0 mg/kg/injection, schedule: Q01DX009 (ip), vehicle: saline with Tween-80.
Where [6] appears, read: dose: 100.0 mg/kg/injection, schedule: Q01DX009 (ip), vehicle: saline.
[7] abbreviates: dose: 400.0 mg/kg/injection, schedule: Q01DX009 (ip), vehicle: saline.
Setting [8] is: dose: 50.0 mg/kg/injection, schedule: Q01DX005 (ip), vehicle: saline with Tween-80.

The structures appear in SMILES notation. “And” between values parts separate entries of the source, which are not always exact repeats. Equal entries are not always repeated. Inconclusive results and toxic doses are left out.

Consider `O=C(OCCOCCN1CCCCC1)C1c2ccccc2Sc2ccc(Cl)cc21` (stereo not given), for which the T/C is 100 % of control (dose: 12.5 mg/kg/injection, schedule: Q01DX005 (ip), vehicle: saline); 105 % of control (dose: 25.0 mg/kg/injection, schedule: Q01DX005 (ip), vehicle: saline); 100 % of control and 98 % of control under setting [1].

With `COc1ccc(-c2nc3ccccc3[nH]2)cc1`, the T/C is 103 % of control (dose: 50.0 mg/kg/injection, schedule: Q04DX003 (ip), vehicle: saline with Tween-80); 106 % of control (dose: 100.0 mg/kg/injection, schedule: Q04DX003 (ip), vehicle: saline with Tween-80); 102 % of control (dose: 200.0 mg/kg/injection, schedule: Q04DX003 (ip), vehicle: saline with Tween-80); 120 % of control (dose: 400.0 mg/kg/injection, schedule: Q04DX003 (ip), vehicle: saline with Tween-80).

`COc1cc([N+](=O)[O-])ccc1Nc1c2ccccc2nc2ccccc12`: the T/C by setting is: under setting [2], 99 % of control; under setting [3], 98 % of control; under setting [4], 90 % of control.

Take `N#C/C(=N\Nc1ccc(Cl)cc1)C(=O)C1CC1`: the T/C (dose: 15.0 mg/kg/injection, schedule: Q01DX005 (ip), vehicle: Klucel (hydroxypropylcellulose) (HPC)) is 105 % of control; the T/C (dose: 30.0 mg/kg/injection, schedule: Q01DX005 (ip), vehicle: Klucel (hydroxypropylcellulose) (HPC)) is 98 % of control; the T/C (dose: 60.0 mg/kg/injection, schedule: Q01DX005 (ip), vehicle: Klucel (hydroxypropylcellulose) (HPC)) is 99 % of control and 91 % of control.

As to `O=Nc1[nH]c(NO)c2ccccc12`, the T/C reads like this: under setting [5], 91 % of control; (dose: 100.0 mg/kg/injection, schedule: Q01DX009 (ip), vehicle: saline with Tween-80) 87 % of control; (dose: 200.0 mg/kg/injection, schedule: Q01DX009 (ip), vehicle: saline with Tween-80) 87 % of control; (dose: 400.0 mg/kg/injection, schedule: Q01DX009 (ip), vehicle: saline with Tween-80) 90 % of control.

`CN(C)c1ccc2c(N(C)C)cc(N(C)C)[n+](C)c2c1`: the T/C is, setting by setting: (dose: 0.78 mg/kg/injection, schedule: Q01DX009 (ip), vehicle: distilled water + Tween-80 + alcohol) 106 % of control; (dose: 1.56 mg/kg/injection, schedule: Q01DX009 (ip), vehicle: distilled water + Tween-80 + alcohol) 115 % of control.

For `O=S(=O)(O)C1=CC(=N/Cl)/C=CC/1=N\Cl`, the T/C is, setting by setting: under setting [1], 114 % of control and 116 % of control and 119 % of control; (dose: 100.0 mg/kg/injection, schedule: Q01DX005 (ip), vehicle: saline) 104 % of control and 121 % of control and 124 % of control; (dose: 200.0 mg/kg/injection, schedule: Q01DX005 (ip), vehicle: saline) 107 % of control and 116 % of control and 121 % of control; (dose: 400.0 mg/kg/injection, schedule: Q01DX005 (ip), vehicle: saline) 106 % of control.

For `CN(C)N=Nc1ccc(N(C)C)cc1`, the T/C was 121 % of control (dose: 0.39 mg/kg/injection, schedule: Q01DX009 (ip), vehicle: Klucel (hydroxypropylcellulose) (HPC)); 113 % of control and 114 % of control (dose: 0.78 mg/kg/injection, schedule: Q01DX009 (ip), vehicle: Klucel (hydroxypropylcellulose) (HPC)); 113 % of control and 120 % of control (dose: 1.56 mg/kg/injection, schedule: Q01DX009 (ip), vehicle: Klucel (hydroxypropylcellulose) (HPC)); 103 % of control and 118 % of control (dose: 3.13 mg/kg/injection, schedule: Q01DX009 (ip), vehicle: Klucel (hydroxypropylcellulose) (HPC)).

For the molecule `Cc1ccc(CC(=O)O)c2c1C(=O)CC2`, the T/C (dose: 12.5 mg/kg/injection, schedule: Q01DX009 (ip), vehicle: distilled water + Tween-80) was 92 % of control; the T/C (dose: 25.0 mg/kg/injection, schedule: Q01DX009 (ip), vehicle: distilled water + Tween-80) is 90 % of control; the T/C (dose: 50.0 mg/kg/injection, schedule: Q01DX009 (ip), vehicle: distilled water + Tween-80) is 90 % of control; the T/C (dose: 100.0 mg/kg/injection, schedule: Q01DX009 (ip), vehicle: distilled water + Tween-80) was 90 % of control; the T/C (dose: 200.0 mg/kg/injection, schedule: Q01DX009 (ip), vehicle: distilled water + Tween-80) was 90 % of control.

With `OCC1OC(OC2(CO)OC(CO)C(O)C2O)C(O)C(O)C1O` (stereo not given), the T/C (dose: 4.0 mg/kg/injection, schedule: Q01DX005 (ip), vehicle: saline) was 98 % of control; the T/C (dose: 8.0 mg/kg/injection, schedule: Q01DX005 (ip), vehicle: saline) was 96 % of control; the T/C (dose: 32.0 mg/kg/injection, schedule: Q01DX005 (ip), vehicle: saline) was 96 % of control; the T/C (dose: 64.0 mg/kg/injection, schedule: Q01DX005 (ip), vehicle: saline) was 97 % of control; the T/C under setting [6] was 97 % of control; the T/C (dose: 128.0 mg/kg/injection, schedule: Q01DX005 (ip), vehicle: saline) is 99 % of control. Further, the T/C by setting is: (dose: 200.0 mg/kg/injection, schedule: Q01DX009 (ip), vehicle: saline) 97 % of control; (dose: 256.0 mg/kg/injection, schedule: Q01DX005 (ip), vehicle: saline) 98 % of control; under setting [7], 98 % of control; (dose: 512.0 mg/kg/injection, schedule: Q01DX005 (ip), vehicle: saline) 100 % of control; (dose: 1024.0 mg/kg/injection, schedule: Q01DX005 (ip), vehicle: saline) 106 % of control; (dose: 2048.0 mg/kg/injection, schedule: Q01DX005 (ip), vehicle: saline) 108 % of control.

Regarding `COC(=O)C1=[N+]([O-])OC(C(=O)OC)C1c1ccc(OC)cc1` (stereo not given), the T/C under setting [8] is 97 % of control; the T/C (dose: 100.0 mg/kg/injection, schedule: Q01DX005 (ip), vehicle: saline with Tween-80) was 97 % of control; the T/C (dose: 200.0 mg/kg/injection, schedule: Q01DX005 (ip), vehicle: saline with Tween-80) is 98 % of control.

As to `O=C(Nc1ccc(S(=O)(=O)O)cc1)c1ccc([N+](=O)[O-])cc1`, the T/C is 100 % of control under setting [6] and 109 % of control under setting [7].

For `Cc1ccc(NC(=O)CC(=O)CC(C)C)cc1C`, the T/C was 107 % of control under setting [8]; 113 % of control (dose: 120.0 mg/kg/injection, schedule: Q01DX005 (ip), vehicle: saline with Tween-80); 114 % of control (dose: 240.0 mg/kg/injection, schedule: Q01DX005 (ip), vehicle: saline with Tween-80).

For `C[n+]1cccc(C(=S)[S-])c1`, the T/C by setting is: (dose: 12.5 mg/kg/injection, schedule: Q01DX009 (ip), vehicle: saline with Tween-80) 100 % of control; (dose: 25.0 mg/kg/injection, schedule: Q01DX009 (ip), vehicle: saline with Tween-80) 95 % of control; under setting [5], 90 % of control.

For `OC1C=C(c2ccccc2)C(O)(c2ccccc2)C1` (stereo not given), the T/C reads like this: under setting [2], 100 % of control; under setting [3], 100 % of control; under setting [4], 92 % of control.

Regarding `C[CH2][Sn]([Cl])([Cl])[CH2]C`, the T/C is 104 % of control (dose: 1.56 mg/kg/injection, schedule: Q04DX003 (ip), vehicle: saline); 111 % of control and 113 % of control and 116 % of control (dose: 3.12 mg/kg/injection, schedule: Q04DX003 (ip), vehicle: saline); 118 % of control [middle of 5 runs] (dose: 6.25 mg/kg/injection, schedule: Q04DX003 (ip), vehicle: saline); 121 % of control and 101 % of control and 115 % of control (dose: 12.5 mg/kg/injection, schedule: Q04DX003 (ip), vehicle: saline); 153 % of control (dose: 25.0 mg/kg/injection, schedule: Q04DX003 (ip), vehicle: saline).

As for `COc1ccc(N=C(C2=C(O)c3ccccc3C2=O)c2ccccc2)cc1`, the T/C reads like this: (dose: 100.0 mg/kg/injection, schedule: Q04DX002 (ip), vehicle: saline with Tween-80) 101 % of control; (dose: 200.0 mg/kg/injection, schedule: Q04DX002 (ip), vehicle: saline with Tween-80) 101 % of control; (dose: 400.0 mg/kg/injection, schedule: Q04DX002 (ip), vehicle: saline with Tween-80) 97 % of control.

As to `COC1CC(OC2C(C)OC(OC3C(C)OC(OC4CCC5(C)C(=CCC6(O)C5CC(OC(=O)c5ccc(O)cc5)C5(C)C(O)(C(C)=O)CCC65O)C4)CC3OC)CC2OC)OC(C)C1O` (stereo not given) (tested in a mixture with another compound), the T/C is 100 % of control (dose: 12.5 mg/kg/injection, schedule: Q01DX005 (ip), vehicle: distilled water + Tween-80 + alcohol); 94 % of control (dose: 25.0 mg/kg/injection, schedule: Q01DX005 (ip), vehicle: distilled water + Tween-80 + alcohol); 101 % of control (dose: 50.0 mg/kg/injection, schedule: Q01DX005 (ip), vehicle: distilled water + Tween-80 + alcohol); 115 % of control (dose: 100.0 mg/kg/injection, schedule: Q01DX005 (ip), vehicle: distilled water + Tween-80 + alcohol).
